The text below walks through data of patent US20260098053A1, “COMPOSITIONS AND METHODS FOR TREATING CNS DISORDERS” (SAGE THERAPEUTICS, INC., priority 2019, published 2026).

By IC50 is commonly meant the concentration at which inhibition is half-maximal.

The target in one experiment is [35S]-TBPS binding, rat brain cortical membranes. Briefly: Steroid inhibition of [35S]-TBPS binding. To be noted: Table 4, 3 nM [35S]-TBPS, in the presence of 5 mM GABA, read-out: TBPS IC50. The method, boiled down: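 Washed P2 cortical membranes from Sprague-Dawley rats, in 200 mM NaCl/50 mM Na-K phosphate pH 7.4, incubated 90 min at room temp with 3 nM [35S]-TBPS, […] GABA and test drug (0.5% DMSO final). Nonspecific binding defined with […] unlabeled TBPS; filtration and scintillation counting. IC50 and Imax from non-linear curve fits, means±SEM of experiments.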
As for `CC[C@]12CC[C@@](C)(O)CC[C@H]1CC[C@H]1[C@@H]3CC[C@H](C(C)=O)[C@@]3(C)CC[C@@H]12` [Example 25, 1-((1S,3aS,3bS,5aR,8S,10aS,10bS,12aS)-10a-ethyl-8-hydroxy-8,12a-dimethyloctadecahydrocyclohepta[a]cyclopenta[f]naphthalen-1-yl)ethanone], the IC50 is 100 to 1000 nM.
Same read-out and setting: for `CC[C@]12CC[C@H]3[C@@H](CC[C@@H]4C[C@](C)(O)CCC[C@@]43C)[C@@H]1CC[C@@H]2C(C)=O` [Example 29, 1-((1S,3aS,3bR,5aR,7R,10aS,10bS,12aS)-12a-ethyl-7-hydroxy-7,10a-dimethyloctadecahydrocyclohepta[a]cyclopenta[f]naphthalen-1-yl)ethanone] the value was < 100 nM; for `CC[C@@]1(O)CCC[C@@]2(C)[C@H](CC[C@@H]3[C@@H]2CC[C@]2(C)[C@H](C(=O)Cn4cc(C#N)cn4)CCC[C@@H]32)C1` [Example 39, 1-(2-((1R,4aS,4bR,6aR,8R,11aS,11bS,13aS)-8-ethyl-8-hydroxy-11a,13a-dimethyloctadecahydro-1H-cyclohepta[a]phenanthren-1-yl)-2-oxoethyl)-1H-pyrazole-4-carbonitrile], > 1000 nM.
`Cc1nnnn1CC(=O)[C@@H]1CCCC[C@H]2[C@@H]3CC[C@@H]4C[C@](C)(O)CCC[C@]4(C)[C@H]3CC[C@]12C` [Example 65, 1-((1R,5aS,5bR,7aR,9R,12aS,12bS,14aS)-9-hydroxy-9,12a,14a-trimethylicosahydrodicyclohepta[a,f]naphthalen-1-yl)-2-(5-methyl-1H-tetrazol-1-yl)ethanone]: the half-maximal inhibitory concentration (IC50) is > 1000 nM.
Still for that read-out and setting: for `CC[C@]1(O)CC[C@H]2CC[C@@H]3[C@H](CC[C@]4(C)[C@@H](C(C)=O)CCC[C@@H]34)[C@H]2CC1` [Example 49, 1-((1S,4aS,4bR,6aR,9S,11aS,11bR,13aS)-9-ethyl-9-hydroxy-13a-methyloctadecahydro-1H-cyclohepta[a]phenanthren-1-yl)ethanone] the value was > 1000 nM; for `C[C@]1(O)CCC2=CC[C@H]3[C@@H]4CCC[C@H](C(=O)Cn5cc(C#N)cn5)[C@@]4(C)CC[C@@H]3[C@@]2(C)CC1` [Example 58, 1-(2-((1S,4aS,4bS,9S,11aR,11bS,13aS)-9-hydroxy-9,11a,13a-trimethyl-2,3,4,4a,4b,5,7,8,9,10,11,11a,11b,12,13,13a-hexadecahydro-1H-cyclohepta[a]phenanthren-1-yl)-2-oxoethyl)-1H-pyrazole-4-carbonitrile], < 100 nM.
Same read-out and setting: for `CC[C@]1(O)CC[C@H]2CC[C@@H]3[C@H](CC[C@]4(C)[C@@H](C(=O)Cn5cc(C#N)cn5)CCC[C@@H]34)[C@H]2CC1` [Example 50] the value was 100 to 1000 nM; for `CC[C@@]1(O)CCC[C@@]2(C)[C@H](CC[C@@H]3[C@@H]2CC[C@]2(C)[C@@H](C(=O)Cn4cc(C#N)cn4)CCC[C@@H]32)C1` [Example 38, 1-(2-((1S,4aS,4bR,6aR,8R,11aS,11bS,13aS)-8-ethyl-8-hydroxy-11a,13a-dimethyloctadecahydro-1H-cyclohepta[a]phenanthren-1-yl)-2-oxoethyl)-1H-pyrazole-4-carbonitrile], 100 to 1000 nM.
Same read-out and setting: for `CC[C@]12CC[C@H]3[C@@H](CC[C@@H]4CC[C@@](O)(COC)CC[C@@H]43)[C@@H]1CC[C@@H]2C(C)=O` [Example 32, 1-((1S,3aS,3bR,5aR,8S,10aS,10bR,12aS)-12a-ethyl-8-hydroxy-8-(methoxymethyl)octadecahydrocyclohepta[a]cyclopenta[f]naphthalen-1-yl)ethanone] the value was 100 to 1000 nM; for `CC[C@@]1(O)CCC[C@@]2(C)[C@@H](CC[C@@H]3[C@@H]2CC[C@]2(C)[C@@H](C(=O)Cn4cc(C#N)cn4)CCC[C@@H]32)C1` [Example 42, 1-(2-((1S,4aS,4bR,6aS,8R,11aS,11bS,13aS)-8-ethyl-8-hydroxy-11a,13a-dimethyloctadecahydro-1H-cyclohepta[a]phenanthren-1-yl)-2-oxoethyl)-1H-pyrazole-4-carbonitrile], 100 to 1000 nM; for `COC[C@]1(O)CC[C@H]2CC[C@@H]3[C@H](CC[C@]4(C)[C@@H](C(=O)Cn5cc(C#N)cn5)CCC[C@@H]34)[C@H]2CC1` [Example 46, 1-(2-((1S,4aS,4bR,6aR,9S,11aS,11bR,13aS)-9-hydroxy-9-(methoxymethyl)-13a-methyloctadecahydro-1H-cyclohepta[a]phenanthren-1-yl)-2-oxoethyl)-1H-pyrazole-4-carbonitrile], 100 to 1000 nM.
With `C[C@@]1(O)CCC[C@@]2(C)[C@@H](CC[C@@H]3[C@@H]2CC[C@]2(C)[C@@H](C(=O)CCn4cc(C#N)cn4)CCC[C@@H]32)C1` [Example 41, 1-(3-((1S,4aS,4bR,6aS,8R,11aS,11bS,13aS)-8-hydroxy-8,11a,13a-trimethyloctadecahydro-1H-cyclohepta[a]phenanthren-1-yl)-3-oxopropyl)-1H-pyrazole-4-carbonitrile], the IC50 was < 100 nM.
The same measure, in the same setting: for `C[C@]1(O)CC[C@H]2CC[C@@H]3[C@H](CC[C@]4(C)[C@@H](C(=O)CCn5cc(C#N)cn5)CCC[C@@H]34)[C@H]2CC1` [Example 51, 1-(3-((1S,4aS,4bR,6aR,9S,11aS,11bR,13aS)-9-hydroxy-9,13a-dimethyloctadecahydro-1H-cyclohepta[a]phenanthren-1-yl)-3-oxopropyl)-1H-pyrazole-4-carbonitrile] the value was 100 to 1000 nM.

Still in this experiment, the particulars now being: Table 5, 3 nM [35S]-TBPS, in the presence of 5 mM GABA, read-out: TBPS IC50.
For the molecule `CC[C@]12CC[C@@](C)(O)C[C@H]1CC[C@H]1[C@@H]3CC[C@H](C(=O)Cn4nnc(C)n4)[C@H]3CC[C@@H]12` [Example 83, 1-((3R,5R,8S,9S,10S,13S,14S,17S)-10-ethyl-3-hydroxy-3-methylhexadecahydro-1H-cyclopenta[a]phenanthren-17-yl)-2-(5-methyl-2H-tetrazol-2-yl)ethanone], the IC50 is < 100 nM.
Consider `CC(=O)[C@@H]1CC[C@H]2[C@@H]3CC[C@@H]4C[C@](C)(O)CC[C@@H]4[C@H]3CC[C@@H]21` [Example 67, 1-((3R,5R,8R,9R,10S,13S,14S,17R)-3-hydroxy-3-methylhexadecahydro-1H-cyclopenta[a]phenanthren-17-yl)ethan-1-one], for which the IC50 is > 1000 nM.

Staying with this experiment, now noted: Table 6, 3 nM [35S]-TBPS, in the presence of 5 mM GABA, read-out: IC50.
As to `CC[C@]12CC[C@H]3[C@@H](CC[C@@H]4C[C@](C)(O)CC[C@@]43C3CC3)[C@@H]1CC[C@@H]2C(=O)Cn1nnnc1C` [Example 92, 1-((3R,5R,8S,9S,10R,13S,14S,17S)-10-cyclopropyl-13-ethyl-3-hydroxy-3-methylhexadecahydro-1H-cyclopenta[a]phenanthren-17-yl)-2-(5-methyl-1H-tetrazol-1-yl)ethanone], the IC50 is < 100 nM.
The same measure, in the same setting: for `C[C@@]1(O)CC[C@@]2(C3CC3)[C@H](CC[C@H]3[C@@H]4CCC[C@@H](C(=O)Cn5cc(C#N)cn5)[C@@]4(C)CC[C@@H]32)C1` [Example 86, 1-(2-((1R,4aS,4bS,6aR,8R,10aR,10bS,12aS)-10a-cyclopropyl-8-hydroxy-8,12a-dimethyloctadecahydrochrysen-1-yl)-2-oxoethyl)-1H-pyrazole-4-carbonitrile] the value was > 1000 nM; for `C[C@@]1(O)CC[C@@]2(C3CC3)[C@H](CC[C@H]3[C@@H]4CCC[C@H](C(=O)Cn5cc(C#N)cn5)[C@@]4(C)CC[C@@H]32)C1` [Example 87, 1-(2-((1S,4aS,4bS,6aR,8R,10aR,10bS,12aS)-10a-cyclopropyl-8-hydroxy-8,12a-dimethyloctadecahydrochrysen-1-yl)-2-oxoethyl)-1H-pyrazole-4-carbonitrile], < 100 nM.
